In this test the test system is γ-secretase. Kind of test: Cellular γ-secretase assay (inhibition of Aβ42 secretion, AlphaLisa). It is filed as cell-based. Particulars: Human neuroglioma H4 cells overexpressing human APP695 Swedish double mutation; 24 hr compound incubation; secreted Aβ42 in supernatant. The protocol:
Cellular γ-Secretase Assay
Human neuroglioma H4 cells overexpressing human APP695 with the Swedish double mutation (K595N/M596L) were plated at 30,000 cells/well/100 μl in 96-well plates in IMDM media containing 10% FCS, 0.2 mg/l Hygromycin B and incubated at 37° C., 5% CO2.
3-4 hr post plating, compounds are a diluted in media and 50 μl is added as 1.5-fold concentrate to achieve the final concentration. Compound incubation is performed for 24 hr. Final doses typically range from 4 μM down to 0.0013 μM in half-log steps resulting in a eight point dose response curve.
Appropriate controls using vehicle only and reference compound were applied to this assay. The final concentration of Me2SO was 0.4%.
After incubation at 37° C., 5% CO2, the supernatant was subjected to quantification of secreted Aβ42 by the means of an AlphaLisa assay kit (Human Amyloid beta 1-42 Kit: Cat # AL203C, Perkin Elmer). 20 μl of the cell culture supernatant was transferred to an assay plate. Then 10 μl of a mixture of the AlphaLisa coupled capture antibody and the biotinylated detection antibody was added and incubated for 3 hours at room temperature while softly shaking the assay plate. After a further addition of 20 μl of the Donor beads the assay plate was incubated for 30 min at room temperature and constant shaking without exposure to direct light.
The assay plate was then read on a Paradigm AlphaLisa Reader using the build-in program with excitation at 680 nm and emission at […].
The measured signals were then used to calculate IC50 values for inhibition of Aβ42 secretion by nonlinear regression fit analysis using XLfit 5.3 software (IDBS).

What is called EC50 is the concentration at which the effect is half-maximal.

For the compound `Fc1ccc(N2CCCn3nc(N[C@@H]4[C@@H]5CC[C@H]4CN(c4ccnc(C(F)(F)F)c4)C5)nc32)cc1F` [Example 1, 4-(3,4-difluorophenyl)-N-[(1R,5S,8S)-3-[2-(trifluoromethyl)-4-pyridyl]-3-azabicyclo[3.2.1]octan-8-yl]-6,7-dihydro-5H-[1,2,4]triazolo[1,5-a]pyrimidin-2-amine], a half-maximal response (EC50) required 0.0158 µM.
Regarding `Fc1ccc(N2CCCn3nc(N[C@@H]4[C@@H]5CC[C@H]4CN(c4ccnc(Cl)c4)C5)nc32)cc1F` [Example 2, N-[(1R,5S,8S)-3-(2-chloro-4-pyridyl)-3-azabicyclo[3.2.1]octan-8-yl]-4-(3,4-difluorophenyl)-6,7-dihydro-5H-[1,2,4]triazolo[1,5-a]pyrimidin-2-amine], the EC50 is 0.0059 µM.
`Cc1cc(N2C[C@H]3CC[C@@H](C2)[C@@H]3Nc2nc3n(n2)CCCN3c2ccc(F)c(F)c2)ncn1` [Example 3, 4-(3,4-difluorophenyl)-N-[(1R,5S,8S)-3-(6-methylpyrimidin-4-yl)-3-azabicyclo[3.2.1]octan-8-yl]-6,7-dihydro-5H-[1,2,4]triazolo[1,5-a]pyrimidin-2-amine]: the EC50 is 0.0264 µM.
With `Fc1ccc(N2CCn3nc(N[C@@H]4[C@@H]5CC[C@H]4CN(c4ccnc(C(F)(F)F)c4)C5)nc32)cc1F` [Example 4, 4-(3,4-difluorophenyl)-N-[(1R,5S,8S)-3-[2-(trifluoromethyl)-4-pyridyl]-3-azabicyclo[3.2.1]octan-8-yl]-5,6-dihydroimidazo[1,2-b][1,2,4]triazol-2-amine] the figure was 0.0892 µM; with `Cc1cc(N2C[C@H]3CC[C@@H](C2)[C@@H]3Nc2nc3n(n2)CCN3c2ccc(F)c(F)c2)ncn1` [Example 5, 4-(3,4-difluorophenyl)-N-[(1R,5S,8S)-3-(6-methylpyrimidin-4-yl)-3-azabicyclo[3.2.1]octan-8-yl]-5,6-dihydroimidazo[1,2-b][1,2,4]triazol-2-amine], 0.0356 µM; with `FC(F)(F)c1ccc(N2CCCn3nc(N[C@@H]4[C@@H]5CC[C@H]4CN(c4ccnc(C(F)(F)F)c4)C5)nc32)cc1` [Example 6, 4-[4-(trifluoromethyl)phenyl]-N-[(1R,5S,8S)-3-[2-(trifluoromethyl)-4-pyridyl]-3-azabicyclo[3.2.1]octan-8-yl]-6,7-dihydro-5H-[1,2,4]triazolo[1,5-a]pyrimidin-2-amine], 0.0214 µM.
With `FC(F)(F)c1ccc(N2CCCCn3nc(N[C@@H]4[C@@H]5CC[C@H]4CN(c4ccnc(C(F)(F)F)c4)C5)nc32)cc1` [Example 7, 4-[4-(trifluoromethyl)phenyl]-N-[(1R,5S,8S)-3-[2-(trifluoromethyl)-4-pyridyl]-3-azabicyclo[3.2.1]octan-8-yl]-5,6,7,8-tetrahydro-[1,2,4]triazolo[1,5-a][1,3]diazepin-2-amine] the figure was 0.0302 µM; with `Cc1cc(N2C[C@H]3CC[C@@H](C2)[C@@H]3Nc2nc3n(n2)CCCN3c2ccc(C(F)(F)F)cc2)ncn1` [Example 8, N-[(1R,5S,8S)-3-(6-methylpyrimidin-4-yl)-3-azabicyclo[3.2.1]octan-8-yl]-4-[4-(trifluoromethyl)phenyl]-6,7-dihydro-5H-[1,2,4]triazolo[1,5-a]pyrimidin-2-amine], 0.0117 µM.
Compound `Cc1cc(N2C[C@H]3CC[C@@H](C2)[C@@H]3Nc2nc3n(n2)CCCCN3c2ccc(C(F)(F)F)cc2)ncn1` [Example 9, N-[(1R,5S,8S)-3-(6-methylpyrimidin-4-yl)-3-azabicyclo[3.2.1]octan-8-yl]-4-[4-(trifluoromethyl)phenyl]-5,6,7,8-tetrahydro-[1,2,4]triazolo[1,5-a][1,3]diazepin-2-amine] showed an EC50 of 0.0192 µM. Against the preceding compound, the EC50 is about 1.6-fold higher.
The result for `Cc1ccc(N2CCCn3nc(N[C@@H]4[C@@H]5CC[C@H]4CN(c4ccnc(C(F)(F)F)c4)C5)nc32)cc1F` [Example 10, 4-(3-fluoro-4-methyl-phenyl)-N-[(1R,5S,8S)-3-[2-(trifluoromethyl)-4-pyridyl]-3-azabicyclo[3.2.1]octan-8-yl]-6,7-dihydro-5H-[1,2,4]triazolo[1,5-a]pyrimidin-2-amine] reads 0.0312 µM; that for `Cc1cc(N2C[C@H]3CC[C@@H](C2)[C@@H]3Nc2nc3n(n2)CCCN3c2ccc(C)c(F)c2)ncn1` [Example 11, 4-(3-fluoro-4-methyl-phenyl)-N-[(1R,5S,8S)-3-(6-methylpyrimidin-4-yl)-3-azabicyclo[3.2.1]octan-8-yl]-6,7-dihydro-5H-[1,2,4]triazolo[1,5-a]pyrimidin-2-amine], 0.0278 µM.
The result for `Cc1cc(N2C[C@H]3CC[C@@H](C2)[C@@H]3Nc2nc3n(n2)CCN3c2ccc(C(F)(F)F)cc2)ncn1` [Example 12, N-[(1R,5S,8S)-3-(6-methylpyrimidin-4-yl)-3-azabicyclo[3.2.1]octan-8-yl]-4-[4-(trifluoromethyl)phenyl]-5,6-dihydroimidazo[1,2-b][1,2,4]triazol-2-amine] reads 0.0268 µM; that for `Cc1ccc(N2CCCn3nc(N[C@@H]4[C@@H]5CC[C@H]4CN(c4cc(Cl)ncn4)C5)nc32)cc1F` [Example 13, N-[(1R,5S,8S)-3-(6-chloropyrimidin-4-yl)-3-azabicyclo[3.2.1]octan-8-yl]-4-(3-fluoro-4-methyl-phenyl)-6,7-dihydro-5H-[1,2,4]triazolo[1,5-a]pyrimidin-2-amine], 0.0114 µM.
In the case of `COc1cc(N2C[C@H]3CC[C@@H](C2)[C@@H]3Nc2nc3n(n2)CCCN3c2ccc(F)c(F)c2)ncn1` [Example 14, 4-(3,4-difluorophenyl)-N-[(1R,5S,8S)-3-(6-methoxypyrimidin-4-yl)-3-azabicyclo[3.2.1]octan-8-yl]-6,7-dihydro-5H-[1,2,4]triazolo[1,5-a]pyrimidin-2-amine], the EC50 came out at 0.0155 µM.
The result for `Cc1noc(N2C[C@H]3CC[C@@H](C2)[C@@H]3Nc2nc3n(n2)CCCN3c2ccc(F)c(F)c2)n1` [Example 15, 4-(3,4-difluorophenyl)-N-[(1R,5S,8S)-3-(3-methyl-1,2,4-oxadiazol-5-yl)-3-azabicyclo[3.2.1]octan-8-yl]-6,7-dihydro-5H-[1,2,4]triazolo[1,5-a]pyrimidin-2-amine] reads 0.0306 µM; that for `Fc1ccc(N2CCCn3nc(N[C@@H]4[C@@H]5CC[C@H]4CN(c4cnnc(Cl)c4)C5)nc32)cc1F` [Example 16, N-[(1R,5S,8S)-3-(6-chloropyridazin-4-yl)-3-azabicyclo[3.2.1]octan-8-yl]-4-(3,4-difluorophenyl)-6,7-dihydro-5H-[1,2,4]triazolo[1,5-a]pyrimidin-2-amine], 0.0172 µM; that for `Fc1ccc(N2CCCn3nc(N[C@@H]4[C@@H]5CC[C@H]4CN(c4cc(Cl)ncn4)C5)nc32)cc1F` [Example 17, N-[(1R,5S,8S)-3-(6-chloropyrimidin-4-yl)-3-azabicyclo[3.2.1]octan-8-yl]-4-(3,4-difluorophenyl)-6,7-dihydro-5H-[1,2,4]triazolo[1,5-a]pyrimidin-2-amine], 0.058 µM.
With `COc1cc(N2C[C@H]3CC[C@@H](C2)[C@@H]3Nc2nc3n(n2)CCCN3c2ccc(F)c(F)c2)cnn1` [Example 18, 4-(3,4-difluorophenyl)-N-[(1R,5S,8S)-3-(6-methoxypyridazin-4-yl)-3-azabicyclo[3.2.1]octan-8-yl]-6,7-dihydro-5H-[1,2,4]triazolo[1,5-a]pyrimidin-2-amine] the figure was 0.0264 µM.
Consider `Cc1ncnc(N2C[C@H]3CC[C@@H](C2)[C@@H]3Nc2nc3n(n2)CCCN3c2ccc(F)c(F)c2)c1F` [Example 19, 4-(3,4-difluorophenyl)-N-[(1R,5S,8S)-3-(5-fluoro-6-methyl-pyrimidin-4-yl)-3-azabicyclo[3.2.1]octan-8-yl]-6,7-dihydro-5H-[1,2,4]triazolo[1,5-a]pyrimidin-2-amine], for which the EC50 came out at 0.0139 µM.
With `Cc1cc(N2C[C@H]3CC[C@@H](C2)[C@@H]3Nc2nc3n(n2)CCCN3c2ccc(F)c(F)c2)cnn1` [Example 20, 4-(3,4-difluorophenyl)-N-[(1R,5S,8S)-3-(6-methylpyridazin-4-yl)-3-azabicyclo[3.2.1]octan-8-yl]-6,7-dihydro-5H-[1,2,4]triazolo[1,5-a]pyrimidin-2-amine], a half-maximal response (EC50) required 0.0231 µM.
With `COc1cc(N2C[C@H]3CC[C@@H](C2)[C@@H]3Nc2nc3n(n2)CCCN3c2ccc(F)c(F)c2)ccn1` [Example 21, 4-(3,4-difluorophenyl)-N-[(1R,5S,8S)-3-(2-methoxy-4-pyridyl)-3-azabicyclo[3.2.1]octan-8-yl]-6,7-dihydro-5H-[1,2,4]triazolo[1,5-a]pyrimidin-2-amine] the figure was 0.0147 µM.
With `Fc1ccc(N2CCCCn3nc(N[C@@H]4[C@@H]5CC[C@H]4CN(c4ccnc(C(F)(F)F)c4)C5)nc32)cc1F` [Example 22, 4-(3,4-difluorophenyl)-N-[(1R,5S,8S)-3-[2-(trifluoromethyl)-4-pyridyl]-3-azabicyclo[3.2.1]octan-8-yl]-5,6,7,8-tetrahydro-[1,2,4]triazolo[1,5-a][1,3]diazepin-2-amine] the figure was 0.0348 µM.

The values above are taken from US10899766B2, “Bridged piperidine derivatives” (Hoffmann-La Roche Inc., priority 2016, dated 2021).
